Assay results: PubChem BioAssay AID248 (DTP/NCI, 2004)
Several values for one entry are separate records, joined by “and”; a condition that tells them apart may be missing. Equal entries are not always repeated. Toxic doses and inconclusive results are not listed. No stated cut-off is given here; in the data, active means T/C of 150% or more; inactive means T/C below 125%. Square brackets hold non-standard residues; d marks the D form. Peptide text beside a SMILES is read from it. * marks the point of attachment. ξ: configuration not given here. ξF = NC(Cc1ccccc1)C(=O)O; Cbz = O=C(OCc1ccccc1)*

Test system: L1210 leukemia ip in BDF1 mice, survival T/C
Experiment: NCI In Vivo Anticancer Drug Screen. Data for tumor model L1210 Leukemia (intraperitoneal) in B6D2F1 (BDF1) mice
Conditions: higher = longer survival
In short: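 Tumor cells were implanted, animals were treated, and survival was followed. The result divides the treated measurement by the vehicle-control measurement.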

[1] = endpoint: mean survival time, dose: 200.0 mg/kg/injection, schedule: Q04DX003 (ip), vehicle: gum acacia
[2] = endpoint: mean survival time, dose: 400.0 mg/kg/injection, schedule: Q04DX003 (ip), vehicle: gum acacia
[3] = endpoint: mean survival time, dose: 100.0 mg/kg/injection, schedule: Q01DX009 (ip), vehicle: saline with Tween-80
[4] = endpoint: mean survival time, dose: 200.0 mg/kg/injection, schedule: Q01DX009 (ip), vehicle: saline with Tween-80
[5] = endpoint: mean survival time, dose: 100.0 mg/kg/injection, schedule: Q01DX001 (ip), vehicle: Klucel (hydroxypropylcellulose) (HPC)
[6] = endpoint: mean survival time, dose: 200.0 mg/kg/injection, schedule: Q01DX001 (ip), vehicle: Klucel (hydroxypropylcellulose) (HPC)
[7] = endpoint: mean survival time, dose: 400.0 mg/kg/injection, schedule: Q01DX001 (ip), vehicle: Klucel (hydroxypropylcellulose) (HPC)
[8] = endpoint: mean survival time, dose: 100.0 mg/kg/injection, schedule: Q04DX002 (ip), vehicle: saline with Tween-80

Measured: T/C

Cc1cc(C(C)(C)C)ccc1SC(=O)Nc1cc([N+](=O)[O-])ccc1Cl
inactive: endpoint: mean survival time, dose: 100.0 mg/kg/injection, schedule: Q01DX001 (ip), vehicle: gum acacia 94 % of control and 95 % of control | endpoint: mean survival time, dose: 100.0 mg/kg/injection, schedule: Q01DX009 (ip), vehicle: gum acacia 103 % of control | endpoint: mean survival time, dose: 100.0 mg/kg/injection, schedule: Q04DX002 (ip), vehicle: gum acacia 99 % of control and 105 % of control | endpoint: mean survival time, dose: 100.0 mg/kg/injection, schedule: Q04DX003 (ip), vehicle: gum acacia 97 % of control and 108 % of control | endpoint: mean survival time, dose: 200.0 mg/kg/injection, schedule: Q01DX001 (ip), vehicle: gum acacia 95 % of control and 97 % of control | endpoint: mean survival time, dose: 200.0 mg/kg/injection, schedule: Q01DX009 (ip), vehicle: gum acacia 102 % of control | endpoint: mean survival time, dose: 200.0 mg/kg/injection, schedule: Q04DX002 (ip), vehicle: gum acacia 103 % of control and 115 % of control | [1] 96 % of control and 99 % of control | endpoint: mean survival time, dose: 400.0 mg/kg/injection, schedule: Q01DX001 (ip), vehicle: gum acacia 94 % of control and 95 % of control | endpoint: mean survival time, dose: 400.0 mg/kg/injection, schedule: Q04DX002 (ip), vehicle: gum acacia 101 % of control and 105 % of control | [2] 101 % of control and 91 % of control

COC1CC(N=[N+]=[N-])C(O)C(C)O1 (configuration not stated)
inactive: [3] 109 % of control and 105 % of control | endpoint: mean survival time, dose: 100.0 mg/kg/injection, schedule: Q04DX003 (ip), vehicle: saline with Tween-80 97 % of control and 96 % of control | [4] 107 % of control and 89 % of control | endpoint: mean survival time, dose: 200.0 mg/kg/injection, schedule: Q04DX003 (ip), vehicle: saline with Tween-80 103 % of control and 97 % of control | endpoint: mean survival time, dose: 400.0 mg/kg/injection, schedule: Q01DX009 (ip), vehicle: saline with Tween-80 104 % of control and 100 % of control | endpoint: mean survival time, dose: 400.0 mg/kg/injection, schedule: Q04DX003 (ip), vehicle: saline with Tween-80 108 % of control and 103 % of control

COC(=O)C(Cc1ccccc1)NC(=O)CNC(=O)CNC(=O)OCc1ccccc1 (stereo not drawn) (Cbz-Gly-Gly-[ξF]-OMe)
inactive: endpoint: mean survival time, dose: 100.0 mg/kg/injection, schedule: Q04DX003 (ip), vehicle: other 98 % of control | endpoint: mean survival time, dose: 200.0 mg/kg/injection, schedule: Q04DX003 (ip), vehicle: other 97 % of control | endpoint: mean survival time, dose: 400.0 mg/kg/injection, schedule: Q04DX003 (ip), vehicle: other 106 % of control

O=c1[nH]c2ccccc2n1C1CCN(CCCS(=O)(=O)c2ccccc2)CC1
inactive: [1] 91 % of control | [2] 87 % of control

O=C1C2C3c4ccccc4C(C2C(=O)N1c1ccc(Cl)cc1)[n+]1ccccc13 (configuration not stated)
inactive: endpoint: mean survival time, dose: 75.0 mg/kg/injection, schedule: Q01DX001 (ip), vehicle: other 96 % of control | endpoint: mean survival time, dose: 150.0 mg/kg/injection, schedule: Q01DX001 (ip), vehicle: other 103 % of control

O=S(=O)(CBr)CBr
inactive: endpoint: mean survival time, dose: 100.0 mg/kg/injection, schedule: Q01DX001 (ip), vehicle: saline 98 % of control | endpoint: mean survival time, dose: 200.0 mg/kg/injection, schedule: Q01DX001 (ip), vehicle: saline 95 % of control | endpoint: mean survival time, dose: 400.0 mg/kg/injection, schedule: Q01DX001 (ip), vehicle: saline 112 % of control

CCC[As](=O)(O)CCC
inactive: endpoint: mean survival time, dose: 25.0 mg/kg/injection, schedule: Q01DX009 (ip), vehicle: saline 107 % of control | endpoint: mean survival time, dose: 50.0 mg/kg/injection, schedule: Q01DX009 (ip), vehicle: saline 112 % of control | endpoint: mean survival time, dose: 100.0 mg/kg/injection, schedule: Q04DX003 (ip), vehicle: saline 111 % of control

Nc1cccc(OCCCn2cc(-c3ccc(Cl)c(Cl)c3)c(N)nc2=O)c1
inactive: [5] 99 % of control | [6] 92 % of control | [7] 100 % of control

CCCCCCCCOC(=O)c1[nH]cnc1/N=N/N(C)CCCC
inactive: endpoint: mean survival time, dose: 100.0 mg/kg/injection, schedule: Q01DX001 (ip), vehicle: other 107 % of control | endpoint: mean survival time, dose: 200.0 mg/kg/injection, schedule: Q01DX001 (ip), vehicle: other 107 % of control | endpoint: mean survival time, dose: 400.0 mg/kg/injection, schedule: Q01DX001 (ip), vehicle: other 102 % of control

CCCCCCCCCCCCCCCCCC(=O)C(C)(C)C
inactive: endpoint: mean survival time, dose: 25.0 mg/kg/injection, schedule: Q01DX001 (ip), vehicle: Klucel (hydroxypropylcellulose) (HPC) 92 % of control | endpoint: mean survival time, dose: 50.0 mg/kg/injection, schedule: Q01DX001 (ip), vehicle: Klucel (hydroxypropylcellulose) (HPC) 98 % of control | [5] 98 % of control | [6] 98 % of control | [7] 95 % of control

O=NN(CCCl)C(=O)NC1CCC(Cl)CC1 (configuration not stated)
active: endpoint: mean survival time, dose: 21.0 mg/kg/injection, schedule: Q01DX001 (ip), vehicle: Klucel (hydroxypropylcellulose) (HPC) 217 % of control | endpoint: mean survival time, dose: 21.0 mg/kg/injection, schedule: Q01DX001 (ip), vehicle: carboxymethylcellulose (CMC) 182 % of control | endpoint: mean survival time, dose: 26.0 mg/kg/injection, schedule: Q01DX001 (ip), vehicle: Klucel (hydroxypropylcellulose) (HPC) 303 % of control | endpoint: mean survival time, dose: 34.0 mg/kg/injection, schedule: Q01DX001 (ip), vehicle: Klucel (hydroxypropylcellulose) (HPC) 387 % of control | endpoint: mean survival time, dose: 34.0 mg/kg/injection, schedule: Q01DX001 (ip), vehicle: carboxymethylcellulose (CMC) 346 % of control | endpoint: mean survival time, dose: 40.0 mg/kg/injection, schedule: Q01DX001 (ip), vehicle: Klucel (hydroxypropylcellulose) (HPC) 291 % of control | endpoint: mean survival time, dose: 49.0 mg/kg/injection, schedule: Q01DX001 (ip), vehicle: Klucel (hydroxypropylcellulose) (HPC) 460 % of control | endpoint: mean survival time, dose: 49.0 mg/kg/injection, schedule: Q01DX001 (ip), vehicle: carboxymethylcellulose (CMC) 469 % of control | endpoint: mean survival time, dose: 60.0 mg/kg/injection, schedule: Q01DX001 (ip), vehicle: Klucel (hydroxypropylcellulose) (HPC) 275 % of control | endpoint: mean survival time, dose: 74.0 mg/kg/injection, schedule: Q01DX001 (ip), vehicle: Klucel (hydroxypropylcellulose) (HPC) 439 % of control | endpoint: mean survival time, dose: 74.0 mg/kg/injection, schedule: Q01DX001 (ip), vehicle: carboxymethylcellulose (CMC) 469 % of control | endpoint: mean survival time, dose: 110.0 mg/kg/injection, schedule: Q01DX001 (ip), vehicle: Klucel (hydroxypropylcellulose) (HPC) 218 % of control | endpoint: mean survival time, dose: 110.0 mg/kg/injection, schedule: Q01DX001 (ip), vehicle: carboxymethylcellulose (CMC) 153 % of control
inactive: endpoint: mean survival time, dose: 12.0 mg/kg/injection, schedule: Q01DX001 (ip), vehicle: Klucel (hydroxypropylcellulose) (HPC) 123 % of control | endpoint: mean survival time, dose: 90.0 mg/kg/injection, schedule: Q01DX001 (ip), vehicle: Klucel (hydroxypropylcellulose) (HPC) 91 % of control | endpoint: mean survival time, dose: 133.0 mg/kg/injection, schedule: Q01DX001 (ip), vehicle: Klucel (hydroxypropylcellulose) (HPC) 98 % of control

CCP(=O)(CCP(=O)(c1ccccc1)c1ccccc1)c1ccccc1 (configuration not stated)
inactive: endpoint: mean survival time, dose: 25.0 mg/kg/injection, schedule: Q04DX002 (ip), vehicle: saline with Tween-80 97 % of control | endpoint: mean survival time, dose: 50.0 mg/kg/injection, schedule: Q04DX002 (ip), vehicle: saline with Tween-80 103 % of control | [8] 106 % of control

COc1ccc2c(ccc3oc([N+](=O)[O-])cc32)c1
inactive: endpoint: median survival time, dose: 12.5 mg/kg/injection, schedule: Q01DX009 (ip), vehicle: Klucel (hydroxypropylcellulose) (HPC) 100 % of control | endpoint: median survival time, dose: 25.0 mg/kg/injection, schedule: Q01DX009 (ip), vehicle: Klucel (hydroxypropylcellulose) (HPC) 95 % of control | endpoint: median survival time, dose: 50.0 mg/kg/injection, schedule: Q01DX009 (ip), vehicle: Klucel (hydroxypropylcellulose) (HPC) 101 % of control | endpoint: median survival time, dose: 100.0 mg/kg/injection, schedule: Q01DX009 (ip), vehicle: Klucel (hydroxypropylcellulose) (HPC) 108 % of control | endpoint: median survival time, dose: 200.0 mg/kg/injection, schedule: Q01DX009 (ip), vehicle: Klucel (hydroxypropylcellulose) (HPC) 106 % of control

CCCCNC(=S)NC1CC(O[C@H]2C[C@](O)(C(C)=O)Cc3c(O)c4c(c(O)c32)C(=O)c2c(OC)cccc2C4=O)OC(C)C1O (some centres not stated)
inactive: [3] 94 % of control

CN(C)P(=O)(c1ccccc1)c1ccccc1
inactive: [8] 112 % of control | endpoint: mean survival time, dose: 200.0 mg/kg/injection, schedule: Q04DX002 (ip), vehicle: saline with Tween-80 102 % of control | endpoint: mean survival time, dose: 400.0 mg/kg/injection, schedule: Q04DX002 (ip), vehicle: saline with Tween-80 94 % of control

CC1CCc2cc3ccccc3nc21 (configuration not stated)
inactive: endpoint: mean survival time, dose: 50.0 mg/kg/injection, schedule: Q01DX009 (ip), vehicle: saline with Tween-80 104 % of control | [3] 104 % of control | [4] 112 % of control

Cc1ccc(NC(=O)c2c(Cl)c(Cl)c(Cl)c(Cl)c2C(=O)O)cc1Cl
inactive: endpoint: mean survival time, dose: 100.0 mg/kg/injection, schedule: Q01DX009 (ip), vehicle: Klucel (hydroxypropylcellulose) (HPC) 100 % of control | endpoint: mean survival time, dose: 100.0 mg/kg/injection, schedule: Q04DX003 (ip), vehicle: Klucel (hydroxypropylcellulose) (HPC) 103 % of control | endpoint: mean survival time, dose: 200.0 mg/kg/injection, schedule: Q01DX009 (ip), vehicle: Klucel (hydroxypropylcellulose) (HPC) 98 % of control | endpoint: mean survival time, dose: 200.0 mg/kg/injection, schedule: Q04DX003 (ip), vehicle: Klucel (hydroxypropylcellulose) (HPC) 102 % of control | endpoint: mean survival time, dose: 400.0 mg/kg/injection, schedule: Q04DX003 (ip), vehicle: Klucel (hydroxypropylcellulose) (HPC) 96 % of control
